According to US20230399378A1, “PEPTIDE-BASED DELIVERY OF AGENTS” (THE FLOREY INSTITUTE OF NEUROSCIENCE AND MENTAL HEALTH, priority 2020, published 2023):
One block for each compound: values may come before it. Square brackets hold non-standard residues; d marks the D form. Peptide text beside a SMILES is read from it. * marks the point of attachment. Myristoyl = CCCCCCCCCCCCCC(=O)*; PMO = not defined here; AEEA = NCCOCCOCC(=O)O; Ahx = NCCCCCC(=O)O; Mpa = O=C(O)CCS

Columns and labels:
[1] = Serum stability in 50% human serum at 37 °C (RP-HPLC, one-phase decay half-life); settings: for proteolytic stability compared to the parent L-peptides: 50% human serum, 37° C.; for half-life at 500 µM: human, serum (50% human serum)
Procedure: Serum stability analysis was conducted for each peptide (7×50 nmol) shown in Table 3 in 50% human serum (100 μL) at 37° C. At the end of each time point (0, 10, 30, 60, 120, 240, and 480 min), 1 M guanidine hydrochloride solution (200 μL) and ice-cold acetonitrile (600 μL) were added, and the serum-peptide solution was centrifuged at 14000 g for 10 min. The supernatant was lyophilised and redissolved in water (200 μL). All samples were analysed by RP-HPLC in the presence of phenol (50 nmol) as an internal standard, using water and acetonitrile containing 0.1% TFA, with a gradient of 10-80% acetonitrile over 30 min, and a flow rate of 1.5 mL/min. The percentage of peptide remaining was measured based on the area under curve. The percentage of peptide remaining versus time data was fitted to a non-linear one-phase exponential decay model in GraphPad Prism 9.2.0 to determine the half-life for each peptide.

SMN2 = SMN2 splice-switching for exon 7 inclusion by RT-qPCR in SMA Type I patient-derived fibroblasts (Example 2); type: cell-based, human; settings: FIG. 3B/3C; 0.5 μM and 1 μM
From the text: FIG. 3. (A) SMN2 pre-mRNA exon-7 skipping and production of 80-90% SMN2Δ7 mRNA transcripts. Peptide-PMO binding to Intron-splicing silencer (ISS-N1) and restoration of SMN2 splicing and production of full-length SMN2 mRNA transcripts. The positions of forward and reverse primers highlighted on full-length mRNA. (B)-(C) Effect of administration of peptides linked to PMO for SMN2 exon 7 inclusion, measured as change in the level of full length SMN2/HPRT1 in SMA patient-derived fibroblasts, each at two concentrations, 0.5 μM and 1 μM (or 1 μM and 5 μM in the case of PMO alone). UT, untreated. (B) For PMO constructs, from left to right: PMO; ApoE(141-150)-PMO; ApoE(133-150)-PMO. (C) For PMO constructs, from left to right: PMO; HA2-PMO; GALA-PMO; NLS-PMO; ApoE(141-150)-PMO; HA2-ApoE(141-150)-PMO; GALA-ApoE(141-150)-PMO; NLS-ApoE(141-150)-PMO; H4-ApoE(141-150)-PMO; A4-ApoE(141-150)-PMO. *P<0.05,**P<0.001, ***P<0.0001 cf. Untreated (control) and PMO (1 and 5 μM); #P<0.001 cf. GALA-/NLS-/H4-ApoE(141-150)-PMO (1 μM), ^<0.001 cf. ApoE(133-150)-PMO (0.5 and 1 μM), ^OP<0.001 cf. ApoE(141-150)-PMO (1 μM), ^&P<0.05 cf.
The inventors then evaluated cellular uptake and activity of these peptide-PMO conjugates in SMA Type I patient-derived fibroblasts with two copies of SMN2. Efficiency of uptake was assessed by RT-qPCR using SMN2 splice-switching for exon 7 inclusion (see FIG. 3A).
SMA Type I patient-derived fibroblasts (SMN2^+/+, GM03813, Coriell Cell Repositories) were maintained in Dulbecco's Modified Eagle's Medium (DMEM), supplemented with 10% foetal bovine serum (FBS), 1% Penicillin/Streptomycin and 1% L-glutamine (L-glu) at 37° C. Cells were plated in 6-well plates at a density of 3×10^5/well in 6 well plates one day prior to treatment with PMO and peptide-PMO conjugates. Cells used were from passage 8-22. PMO and the peptide-PMO conjugates were dissolved in nuclease-free water and diluted to appropriate concentrations in Opti-MEM reduced serum medium. Cells were treated for 4 hrs at 37° C. The transfection medium was then removed and replaced with growth medium in which the cells were incubated for 20 hrs.
Cells were washed with PBS and total cellular RNA was extracted using Trizol (TRI Reagent®, Sigma) according to the manufacturer's instructions (Life Technologies). 400 ng purified RNA was reverse transcribed into cDNA using BioRad iScript Reverse Transcription Supermix kit according to the manufacturer's instructions. The reverse transcription was performed using the Veriti Thermal Cycler (ThermoFisher Scientific) with the thermal cycling conditions: 25° C. for 5 min, 46° C. for 20 min, 95° C. for 1 min followed by a 4° C. holding period.
Quantitative PCR (20 ng cDNA/well) was carried out in a 96-well plate in triplicate using SsoAdvanced Universal SYBR Green Supermix on a Biorad CFX96 Touch™ Real-Time PCR detection system. The amplification was carried out using full-length SMN2-specific primers: Ex-6 Forward 5′-[…]-3′ (SEQ ID NO:10) and Ex7-8 reverse 5′[…]-3′ (SEQ ID NO:11). Human HPRT1 was used as the internal reference gene with forward primer sequence 5′-[…]-3′ (SEQ ID NO:12) and reverse primer sequence 5′-[…]-3′ (SEQ ID NO:13). The ΔΔCt method was used to correct the Ct values against the HPRT1 Ct values. The values obtained were normalised to the untreated control values which were set to 1. Statistical analysis was carried out using one-way ANOVA with post-hoc Bonferroni for multiple groups comparison (GraphPad Prism V.8, 2018). All data are expressed as mean±SEM from at least three independent experiments with p<0.05 considered significant.

[2] = test system: SMA patient-derived fibroblasts; experiment: Confocal fluorescence uptake of Cy5-labelled peptide-PMO conjugates in SMA fibroblasts; type: cell-based, human; settings: 1 μM, 1 hr at 37° C.
Procedure: FIG. 4. Representative confocal fluorescence microscopy images of SMA patient-derived fibroblasts treated with 1 μM of Cy5-labelled: (A) ApoE(141-150)-PMO; (B) HA2-ApoE(141-150)-PMO; (C) ApoE(133-150)-PMO; and (D) HA2-ApoE(133-150)-PMO, for 1 hr at 37° C.
SMA fibroblasts (6.0×10^4 cells/well) were plated onto a p-Slide 4 Well Ph+ Glass Bottom chamber slides precoated with poly-L-ornithine (Ibidi GmbH). After 24 hr, cells were incubated for 1 hr with Cy5-labelled peptide-PMO conjugates (1 μM or 5 μM) diluted in serum free Opti-MEM. At 10 min to end of 1 hr incubation, Hoechst (1:1000 dilution) was added to each well.

fibroblasts = experiment: Viability of fibroblasts by MTS assay (cytotoxicity); type: cell-based, human
Procedure: FIG. 5. Effect of the endosomal escape domain HA2 and lipidation of peptide-PMO conjugates on the viability of fibroblasts determined using MTS assay. UT, untreated control.
The peptide-PMO conjugates were tested up to 10 μM which is 10-fold greater than the concentration needed to achieve a high level of activity.

half-life at 500 µM [1]: 11.2 h
Compound: CC(C)C[C@@H](NC(=O)[C@@H](CCCNC(=N)N)NC(=O)[C@H](NC(=O)[C@@H](CCCNC(=N)N)NC(=O)[C@@H](CC(C)C)NC(=O)[C@@H](C)NC(=O)[C@@H](CO)NC(=O)[C@@H](Cc1c[nH]cn1)NC(=O)[C@@H](CC(C)C)NC(=O)[C@@H](CCCNC(=N)N)NC(=O)[C@@H](CCCCN)NC(=O)[C@@H](CC(C)C)NC(=O)[C@@H](CCCNC(=N)N)NC(=O)[C@@H](CCCCN)NC(=O)[C@@H](CCCNC(=N)N)NC(=O)[C@@H](CC(C)C)NC(=O)[C@@H](CC(C)C)NC(=O)[C@@H](CCCNC(=N)N)NC(=O)COCCOCCNC(=O)CCS)C(C)C)C(=O)O [RI TPA-ApoE(133-150), TPA-mPEG-rllrkrlkrlhsalrvrl] ([Mpa][AEEA][dR][dL][dL][dR][dK][dR][dL][dK][dR][dL][dH][dS][dA][dL][dR][dV][dR][dL]-OH)
proteolytic stability compared to the parent L-peptides [1]: significantly higher proteolytic stability

half-life at 500 µM [1]: 1.6 h
Compound: CC[C@@H](C)[C@@H](NC(=O)[C@@H](C)NC(=O)[C@@H](Cc1c[nH]cn1)NC(=O)[C@@H](Cc1ccccc1)NC(=O)[C@H](NC(=O)[C@@H](Cc1c[nH]cn1)NC(=O)CNC(=O)CNC(=O)[C@@H](Cc1c[nH]c2ccccc12)NC(=O)[C@@H](Cc1c[nH]cn1)NC(=O)COCCOCCNC(=O)CCS)[C@H](C)CC)C(=O)N[C@H](C)C(=O)N[C@H](Cc1c[nH]cn1)C(=O)N[C@H](Cc1ccccc1)C(=O)N[C@H](CC(C)C)C(=O)NCC(=O)NCCOCCOCC(=O)N[C@@H](CCCCN)C(=O)NCCOCCOCC(=O)N[C@H](CCCNC(=N)N)C(=O)N[C@H](CC(C)C)C(=O)N[C@H](CC(C)C)C(=O)N[C@H](CCCNC(=N)N)C(=O)N[C@H](CCCCN)C(=O)N[C@H](CCCNC(=N)N)C(=O)N[C@H](CC(C)C)C(=O)N[C@H](CCCCN)C(=O)N[C@H](CCCNC(=N)N)C(=O)N[C@H](CC(C)C)C(=O)N[C@H](Cc1c[nH]cn1)C(=O)N[C@H](CO)C(=O)N[C@H](C)C(=O)N[C@H](CC(C)C)C(=O)N[C@H](CCCNC(=N)N)C(=O)N[C@@H](C(=O)N[C@H](CCCNC(=N)N)C(=O)N[C@H](CC(C)C)C(=O)O)C(C)C [RI TPA-HA2-ApoE(133-150), TPA-mPEG-hwgghifhaiahflg-mPEG-K-mPEG-rllrkrlkrlhsalrvrl] ([Mpa][AEEA][dH][dW]GG[dH][dI][dF][dH][dA][dI][dA][dH][dF][dL]G[AEEA]K[AEEA][dR][dL][dL][dR][dK][dR][dL][dK][dR][dL][dH][dS][dA][dL][dR][dV][dR][dL]-OH)
proteolytic stability compared to the parent L-peptides [1]: significantly higher proteolytic stability

half-life at 500 µM [1]: 0.4 h
Compound: CC[C@@H](C)[C@@H](NC(=O)[C@@H](C)NC(=O)[C@@H](Cc1c[nH]cn1)NC(=O)[C@@H](Cc1ccccc1)NC(=O)[C@H](NC(=O)[C@@H](Cc1c[nH]cn1)NC(=O)CNC(=O)CNC(=O)[C@@H](Cc1c[nH]c2ccccc12)NC(=O)[C@@H](Cc1c[nH]cn1)NC(=O)COCCOCCNC(=O)CCS)[C@H](C)CC)C(=O)N[C@H](C)C(=O)N[C@H](Cc1c[nH]cn1)C(=O)N[C@H](Cc1ccccc1)C(=O)N[C@H](CC(C)C)C(=O)NCC(=O)NCCOCCOCC(=O)N[C@@H](CCCCN)C(=O)NCCOCCOCC(=O)N[C@H](CCCNC(=N)N)C(=O)N[C@H](CC(C)C)C(=O)N[C@H](CC(C)C)C(=O)N[C@H](CCCNC(=N)N)C(=O)N[C@H](CCCCN)C(=O)N[C@H](CCCNC(=N)N)C(=O)N[C@H](CC(C)C)C(=O)N[C@H](CCCCN)C(=O)N[C@H](CCCNC(=N)N)C(=O)N[C@H](CC(C)C)C(=O)O [RI TPA-HA2-ApoE(141-150), TPA-mPEG-hwgghifhaiahflg-mPEG-K-mPEG-rllrkrlkrl] ([Mpa][AEEA][dH][dW]GG[dH][dI][dF][dH][dA][dI][dA][dH][dF][dL]G[AEEA]K[AEEA][dR][dL][dL][dR][dK][dR][dL][dK][dR][dL]-OH)

Compound: CC[C@H](C)[C@H](NC(=O)[C@H](C)NC(=O)[C@H](Cc1c[nH]cn1)NC(=O)[C@H](Cc1ccccc1)NC(=O)[C@H](CC(C)C)NC(=O)CNC(=O)COCCOCCNC(=O)CCS)C(=O)N[C@@H](C)C(=O)N[C@@H](Cc1c[nH]cn1)C(=O)N[C@@H](Cc1ccccc1)C(=O)N[C@H](C(=O)N[C@@H](Cc1c[nH]cn1)C(=O)NCC(=O)NCC(=O)N[C@@H](Cc1c[nH]c2ccccc12)C(=O)N[C@@H](Cc1c[nH]cn1)C(=O)NCCOCCOCC(=O)N[C@@H](CC(C)C)C(=O)N[C@@H](CCCNC(=N)N)C(=O)N[C@H](C(=O)N[C@@H](CCCNC(=N)N)C(=O)N[C@@H](CC(C)C)C(=O)N[C@@H](C)C(=O)N[C@@H](CO)C(=O)N[C@@H](Cc1c[nH]cn1)C(=O)N[C@@H](CC(C)C)C(=O)N[C@@H](CCCNC(=N)N)C(=O)N[C@@H](CCCCN)C(=O)N[C@@H](CC(C)C)C(=O)N[C@@H](CCCNC(=N)N)C(=O)N[C@@H](CCCCN)C(=O)N[C@@H](CCCNC(=N)N)C(=O)N[C@@H](CC(C)C)C(=O)N[C@@H](CC(C)C)C(=O)N[C@@H](CCCNC(=N)N)C(=O)O)C(C)C)[C@@H](C)CC [TPA-HA2-ApoE(133-150), TPA-mPEG-GLFHAIAHFIHGGWH-mPEG-LR VRLASHLRKLRKRLLR] ([Mpa][AEEA]GLFHAIAHFIHGGWH[AEEA]LRVRLASHLRKLRKRLLR-OH)
half-life at 500 µM [1]: 1.1 h

Compound: Ac-LRKLRKRLLR-X-C-PMO [ApoE(141-150)-PMO]
exon-7 inclusion activity, dependence on concentration (SMN2): concentration-dependent increase in activity
intracellular fluorescence pattern [2]: punctate intracellular fluorescence pattern

Compound: Myr-GLFHAIAHFIHGGWH-X-LRKLRKRLLR-X-C-PMO ({Myristoyl-Gly-Leu-Phe-H2N-Ala-Ile-Ala-H2N-Phe-Ile-H2N-Gly-Gly-Trp-H2N-Ahx}-LRKLRKRLLR[Ahx]C-{PMO}; reading uncertain; also: printed as Myr-GLFHAIAHFIHGGWH-X-LRKLRKRLLR-X-C-PMO; UniProt P02649 159-168, looked up, fragment) [Myr-HA2-ApoE(141-150)-PMO]
effect on cell viability (fibroblasts; at 10 μM): decrease in cell viability
effect on cell viability (fibroblasts; up to 5 μM): None of the P-PMO conjugates had a significant effect on cell viability

Compound: Myr-GLFHAIAHFIHGGWH-X-LRVRLASHLRKLRKRLLR-X-C-PMO [Myr-HA2-ApoE(133-150)-PMO]
effect on cell viability (fibroblasts; at 10 μM): decrease in cell viability
effect on cell viability (fibroblasts; up to 5 μM): None of the P-PMO conjugates had a significant effect on cell viability
